This is an account of results in US20260317356A1, “SMALL MOLECULE MODULATORS OF OGG1” (AZKARRA THERAPEUTICS, INC., priority 2023, published 2026).

The assay deals with hOGG1 (Homo sapiens, UniProt O15527). In words: Biochemical fluorescence assay to measure enzymatic activity of hOGG1 (OGG1/APEX IC50). Conditions: 1 nM OGG1+2 nM APEX+6 nM dsDNA (8-oxo-dG substrate); pH 7.5; RT 40 min; read-out: OGG1/APEX IC50. The arrangement: Protein His-hOGG1 (12-323) was prepared; His (N); host or cells: E. coli. A digest of the protocol: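 His-hOGG1 (12-323, E. coli) at 1 nM with 2 nM hAPE1/APEX1, preincubated 20 min RT with compound. Then 6 nM 8-oxo-dG dsDNA substrate added, 40 min at RT in Tris pH 7.5, 100 mM KCl. TAMRA fluorescence (Ex520/Em600) converted to % inhibition vs controls; IC50 from 3-parameter fit of 10-point curve.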
Sequence of hOGG1 (O15527 12-323): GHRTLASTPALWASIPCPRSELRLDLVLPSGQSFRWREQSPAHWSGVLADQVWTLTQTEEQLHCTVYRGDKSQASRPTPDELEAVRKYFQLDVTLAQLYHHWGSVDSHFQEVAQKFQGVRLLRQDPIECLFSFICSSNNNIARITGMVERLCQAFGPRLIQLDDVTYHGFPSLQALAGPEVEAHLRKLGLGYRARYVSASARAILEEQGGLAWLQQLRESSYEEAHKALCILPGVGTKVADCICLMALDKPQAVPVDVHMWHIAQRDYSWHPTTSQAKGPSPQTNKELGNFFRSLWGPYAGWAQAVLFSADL

For the compound `COc1cc(NC(=O)[C@H]2CC[C@H](N3Cc4c(C)cc(NCCN(C)C)cc4NC3=O)CC2)ccc1C` [Example 85, (1r,4r)-4-(7-(2-(dimethylamino)ethylamino)-5-methyl-2-oxo-1,2-dihydroquinazolin-3(4H)-yl)-N-(3-methoxy-4-methylphenyl)cyclohexanecarboxamide], the IC50 lay in the range of 100 to 1000 nM.

For `Cc1cccc2c1CN([C@H]1CC[C@@H](C(=O)Nc3ccc4ncccc4c3)CC1)C2=O` [Example 228, (1s,4s)-4-(4-Methyl-1-oxoisoindolin-2-yl)-N-(quinolin-6-yl)cyclohexanecarboxamide], the IC50 lay in the range of 1000 to 10000 nM.

For `COc1ccc(NC(=O)[C@]2(C)CC[C@@H](N3Cc4c(C)cccc4NC3=O)CC2)cc1C` (single isomer, unassigned) [Example 106, (1r,4r)-N-(4-methoxy-3-methylphenyl)-1-methyl-4-(5-methyl-2-oxo-1,2-dihydroquinazolin-3(4H)-yl)cyclohexanecarboxamide], the IC50 was 1000 to 10000 nM.

With `COc1cc(NC(=O)[C@H]2CC[C@@H](N3Cc4c(cccc4C4CC4)C3=O)CC2)ccc1C` [Example 151, (1s,4s)-4-(4-Cyclopropyl-1-oxoisoindolin-2-yl)-N-(3-methoxy-4-methylphenyl)cyclohexanecarboxamide], the IC50 is 1000 to 10000 nM.

On to `COc1cc(NC(=O)[C@H]2CC[C@@H](N3Cc4c(C)cc(N5CC(OC)C5)cc4NC3=O)CC2)ccc1C` [Example 29, (1s,4s)-N-(3-Methoxy-4-methylphenyl)-4-(7-(3-methoxyazetidin-1-yl)-5-methyl-2-oxo-1,2-dihydroquinazolin-3(4H)-yl)cyclohexanecarboxamide], for which the IC50 was under 100 nM.

As to `COc1cc(NC(=O)[C@H]2CC[C@@H](N3Cc4c(C)cc(Br)cc4NC3=O)CC2)ccc1C` [Example 74, (1s,4s)-4-(7-bromo-5-methyl-2-oxo-1,2-dihydroquinazolin-3(4H)-yl)-N-(3-methoxy-4-methylphenyl)cyclohexanecarboxamide], the IC50 lay within 100 to 1000 nM.

Consider `COc1cc(NC(=O)[C@H]2CC[C@@H](N3Cc4c(Br)cc(NC(=O)Cn5ccnc5)cc4C3=O)CC2)ccc1C` [Example 196, (1s,4s)-4-(6-(2-(1H-Imidazol-1-yl)acetamido)-4-bromo-1-oxoisoindolin-2-yl)-N-(3-methoxy-4-methylphenyl)cyclohexanecarboxamide], for which the IC50 is 100 to 1000 nM.

`COc1cc(NC(=O)[C@H]2CC[C@@H](N3Cc4c(C)cc([N+](=O)[O-])cc4C3=O)CC2)ccc1C` [Example 167, (1s,4s)-N-(3-Methoxy-4-methylphenyl)-4-(4-methyl-6-nitro-1-oxoisoindolin-2-yl)cyclohexanecarboxamide]: the IC50 was under 100 nM.

`COc1ccc(NC(=O)[C@H]2CC[C@@H](N3Cc4c(C)cccc4C3=O)CC2)cc1F` [Example 224, (1s,4s)-N-(3-Fluoro-4-methoxyphenyl)-4-(4-methyl-1-oxoisoindolin-2-yl)cyclohexanecarboxamide]: the IC50 fell in the range of 100 to 1000 nM.

In the case of `CCc1cccc2c1CN([C@H]1CC[C@@H](C(=O)Nc3ccc(C)c(OC)c3)CC1)C(=O)N2` [Example 72, (1s,4s)-4-(5-ethyl-2-oxo-1,2-dihydroquinazolin-3(4H)-yl)-N-(3-methoxy-4-methylphenyl)cyclohexanecarboxamide], the IC50 was 100 to 1000 nM.

In the case of `C=Cc1cc(C)c2c(c1)NC(=O)N([C@H]1CC[C@@H](C(=O)Nc3ccc(C)c(OC)c3)CC1)C2` [Example 83, (1s,4s)-N-(3-methoxy-4-methylphenyl)-4-(5-methyl-2-oxo-7-vinyl-1,2-dihydroquinazolin-3(4H)-yl)cyclohexanecarboxamide], the IC50 was in the range of 100 to 1000 nM.

As to `COc1cc(NC(=O)[C@H]2CC[C@@H](N3Cc4c(ccc(OC)c4C)NC3=O)CC2)ccc1C` [Example 51, (1s,4s)-N-(3-Methoxy-4-methylphenyl)-4-(6-methoxy-5-methyl-2-oxo-1,2-dihydroquinazolin-3(4H)-yl)cyclohexanecarboxamide], the IC50 fell in the range of 100 to 1000 nM.
